Here are results for 24 compounds from patent publication US8637536B2, “Pyrimidinone compounds for use in the treatment of diseases or conditions mediated by Lp-PLA2” (Glaxo Group Limited, priority 2010, dated 2014).

Structures can show the parent of a compound that is named as a salt. Bounds are passed on as bounds.

One assay addresses T1, recombinant human Lp-PLA2 (Homo sapiens, UniProt Q13093).
T1 sequence (Q13093 22-441): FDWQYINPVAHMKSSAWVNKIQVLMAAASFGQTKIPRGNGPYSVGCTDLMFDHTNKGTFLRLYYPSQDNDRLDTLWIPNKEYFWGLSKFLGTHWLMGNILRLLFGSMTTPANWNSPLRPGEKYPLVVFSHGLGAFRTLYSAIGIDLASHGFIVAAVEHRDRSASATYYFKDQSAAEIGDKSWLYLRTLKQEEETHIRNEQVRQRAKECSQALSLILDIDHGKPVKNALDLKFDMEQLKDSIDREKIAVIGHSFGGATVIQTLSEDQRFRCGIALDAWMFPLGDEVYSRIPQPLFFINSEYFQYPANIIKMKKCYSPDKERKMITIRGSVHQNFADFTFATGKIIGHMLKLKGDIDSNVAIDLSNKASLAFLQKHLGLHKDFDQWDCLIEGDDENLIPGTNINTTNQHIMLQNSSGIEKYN
As to the kind of experiment: Recombinant human Lp-PLA2 assay (rhLp-PLA2, PED6 assay). Format: biochemical. To be noted: text thresholds; upper limit for pIC50 in this assay is 9.3; read-out: pIC50 values in the PED6 assay (converted). The text has this: (1) Recombinant Human Lp-PLA2 Assay (rhLp-PLA2) (Also Referred to as “PED6” Assay)
N-((6-(2,4-dinitrophenyl)amino)-hexanoyl)-2-(4,4-difluoro-5,7-dimethyl-4-bora-3a,4a-diaza-s-indacene-3-pentanoyl)-1-hexadecanoyl-sn-glycero-3-phosphoethanolamine, triethylammonium salt (PED6) is a commercially available fluorescently-labelled phospholipid, which is commercially available from Molecular Probes. There is a quenching […] position and a Bodipy fluorescein (FL) group in the sn2 position.
The PED6 assay was run as an unquenched 10 μL assay. Compounds source plate was prepared by making 1:3 (by volume) serial dilution of the compounds into pure DMSO on 384-well microplate. […] 5 μL of recombinant human Lp-PLA2 enzyme (2 nM rhLp-PLA2 in assay buffer of 50 mM HEPES, pH7.4, 150 mM NaCl, 1 mM CHAPS) was added to each well of the plate with compounds. Plates were centrifuged for 10 sec at 500 rpm. […] Plates were centrifuged for 10 sec at 500 rpm. Plate was covered to protect from light and incubated for 20 min at room temperature. […] PIC50 data, curve and QC analysis was conducted by using XL fit module in Excel.
For `Cn1cc(Cc2cn(C)c(SCc3ccc(Oc4ccc(F)c(C(F)(F)F)c4)c(C#N)c3)nc2=O)cn1` [E60, 2-(4-fluoro-3-(trifluoromethyl)phenoxy)-5-(((1-methyl-5-((1-methyl-1H-pyrazol-4-yl)methyl)-4-oxo-1,4-dihydropyrimidin-2-yl)thio)methyl)benzonitrile, trifluoroacetic acid salt], the IC50 was not above 1 nM.

For the compound `COc1ncc(Cc2cn(C)c(OCCc3ccc(Oc4ccc(Cl)c(C(F)(F)F)c4)cc3)nc2=O)cn1` [E25, 2-{[2-(4-{[4-Chloro-3-(trifluoromethyl)phenyl]oxy}phenyl)ethyl]oxy}-1-methyl-5-{[2-(methyloxy)-5-pyrimidinyl]methyl}-4(1H)-pyrimidinone], the IC50 was not above 1 nM.

Turning to `Cn1cc(Cc2cncnc2)c(=O)nc1SCCc1ccc(Oc2ccc(Cl)c(C(F)(F)F)c2)cc1` [E116, 2-{[2-(4-{[4-chloro-3-(trifluoromethyl)phenyl]oxy}phenyl)ethyl]thio}-1-methyl-5-(5-pyrimidinylmethyl)-4(1H)-pyrimidinone], the IC50 is not above 1 nM.

`COc1ncc(Cc2cn(C)c(SCc3ccc(Oc4ccc(F)cc4)cc3)nc2=O)cn1` [E53, 2-[({4-[(4-fluorophenyl)oxy]phenyl}methyl)thio]-1-methyl-5-{[2-(methyloxy)-5-pyrimidinyl]methyl}-4(1H)-pyrimidinone]: the IC50 is not above 10 nM.

On to `COc1ncc(Cc2c[nH]c(SCCc3ccc(Oc4ccc(Cl)c(C(F)(F)F)c4)c(C#N)c3)nc2=O)cn1` [E119, 2-{[4-chloro-3-(trifluoromethyl)phenyl]oxy}-5-{2-[(5-{[2-(methyloxy)-5-pyrimidinyl]methyl}-4-oxo-1,4-dihydro-2-pyrimidinyl)thio]ethyl}benzonitrile], for which the IC50 is not above 1 nM.

Take `COc1ncc(Cc2c[nH]c(OCCc3ccc(Oc4ccc(Cl)c(C(F)(F)F)c4)cc3)nc2=O)cn1` [E24, 2-{[2-(4-{[4-Chloro-3-(trifluoromethyl)phenyl]oxy}phenyl)ethyl]oxy}-5-{[2-(methyloxy)-5-pyrimidinyl]methyl}-4(1H)-pyrimidinone]: the IC50 was not above 1 nM.

Turning to `O=c1nc(OCCc2ccc(Oc3ccc(Cl)c(C(F)(F)F)c3)c(F)c2)[nH]cc1Cc1cncnc1` [E31, 2-{[2-(4-{[4-Chloro-3-(trifluoromethyl)phenyl]oxy}-3-fluorophenyl)ethyl]oxy}-5-(5-pyrimidinylmethyl)-4(1H)-pyrimidinone trifluoroacetate], the IC50 is not above 1 nM.

In the case of `O=c1nc(OCCc2cc(F)c(Oc3ccc(Cl)c(C(F)(F)F)c3)c(F)c2)[nH]cc1Cc1cncnc1` [E29, 2-{[2-(4-{[4-Chloro-3-(trifluoromethyl)phenyl]oxy}-3,5-difluorophenyl)ethyl]oxy}-5-(5-pyrimidinylmethyl)-4(1H)-pyrimidinone], the IC50 was not above 1 nM.

In the case of `COc1ncc(Cc2c[nH]c(SCc3ccc(Oc4ccc(F)cc4)cc3)nc2=O)cn1` [E52, 2-((4-(4-fluorophenoxy)benzyl)thio)-5-((2-methoxypyrimidin-5-yl)methyl)pyrimidin-4(1H)-one], the IC50 is not above 10 nM.

For the compound `COc1ncc(Cc2c[nH]c(SCc3ccc(Oc4cccc(C(F)(F)F)c4)c(C#N)c3)nc2=O)cn1` [E100, 5-{[(5-{[2-(methyloxy)-5-pyrimidinyl]methyl}-4-oxo-1,4-dihydro-2-pyrimidinyl)thio]methyl}-2-{[3-(trifluoromethyl)phenyl]oxy}benzonitrile], the IC50 was not above 1 nM.

With `Cn1cc(Cc2cncnc2)c(=O)nc1OCCc1cc(F)c(Oc2ccc(Cl)c(C(F)(F)F)c2)c(F)c1` [E30, 2-{[2-(4-{[4-Chloro-3-(trifluoromethyl)phenyl]oxy}-3,5-difluorophenyl)ethyl]oxy}-1-methyl-5-(5-pyrimidinylmethyl)-4(1H)-pyrimidinone], the IC50 is not above 1 nM.

Take `CCc1cn(C)c(SCc2ccc(Oc3ccc(Cl)c(C(F)(F)F)c3)c(C#N)c2)nc1=O` [E64, 2-{[4-chloro-3-(trifluoromethyl)phenyl]oxy}-5-{[(5-ethyl-1-methyl-4-oxo-1,4-dihydro-2-pyrimidinyl)thio]methyl}benzonitrile]: the IC50 is not above 10 nM.

On to `COc1ncc(Cc2c[nH]c(SCc3ccc(Oc4ccc(F)c(C(F)(F)F)c4)c(C#N)c3)nc2=O)cn1` [E89, 2-{[4-fluoro-3-(trifluoromethyl)phenyl]oxy}-5-{[(5-{[2-(methyloxy)-5-pyrimidinyl]methyl}-4-oxo-1,4-dihydro-2-pyrimidinyl)thio]methyl}benzonitrile], for which the IC50 is not above 1 nM.

Turning to `COc1ncc(Cc2c[nH]c(OCCc3ccc(Oc4ccc(C(F)(F)F)cn4)cc3)nc2=O)cn1` [E137, 5-((2-methoxypyrimidin-5-yl)methyl)-2-(4-((5-(trifluoromethyl)pyridin-2-yl)oxy)phenethoxy)pyrimidin-4(1H)-one], the IC50 is not above 10 nM.

As for `N#Cc1cc(CSc2nc(=O)c(Cc3cncnc3)c[nH]2)ccc1Oc1cccc(C(F)(F)F)c1` [E96, 5-({[4-oxo-5-(5-pyrimidinylmethyl)-1,4-dihydro-2-pyrimidinyl]thio}methyl)-2-{[3-(trifluoromethyl)phenyl]oxy}benzonitrile], the IC50 is not above 1 nM.

In the case of `COc1ncc(Cc2c[nH]c(OCCc3ccc(Oc4c(F)cc(Cl)cc4F)cc3)nc2=O)cn1` [E181, 2-(4-(4-chloro-2,6-difluorophenoxy)phenethoxy)-5-((2-methoxypyrimidin-5-yl)methyl)pyrimidin-4(1H)-one], the IC50 is not above 10 nM.

Regarding `O=c1nc(NCCc2ccc(Oc3ccc(Cl)c(C(F)(F)F)c3)cc2)[nH]cc1Cc1cncnc1` [E11, 2-{[2-(4-{[4-Chloro-3-(trifluoromethyl)phenyl]oxy}phenyl)ethyl]amino}-5-(5-pyrimidinylmethyl)-4(1H)-pyrimidinone], the IC50 is not above 1 nM.

For `N#Cc1cc(CCSc2nc(=O)c(Cc3cncnc3)c[nH]2)ccc1Oc1ccc(Cl)c(C(F)(F)F)c1` [E118, 2-{[4-chloro-3-(trifluoromethyl)phenyl]oxy}-5-(2-{[4-oxo-5-(5-pyrimidinylmethyl)-1,4-dihydro-2-pyrimidinyl]thio}ethyl)benzonitrile], the IC50 is not above 1 nM.

For the compound `Cn1cc(Cc2c[nH]c(SCc3ccc(Oc4ccc(Cl)c(C(F)(F)F)c4)c(C#N)c3)nc2=O)cn1` [E58, 2-(4-chloro-3-(trifluoromethyl)phenoxy)-5-(((5-((1-methyl-1H-pyrazol-4-yl)methyl)-4-oxo-1,4-dihydropyrimidin-2-yl)thio)methyl)benzonitrile, trifluoroacetic acid salt], the IC50 was not above 1 nM.

For `COc1ncc(Cc2c[nH]c(SCc3ccc(Oc4ccc(Cl)c(C(F)(F)F)c4)cc3)nc2=O)cn1` [E74, 2-{[(4-{[4-chloro-3-(trifluoromethyl)phenyl]oxy}phenyl)methyl]thio}-5-{[2-(methyloxy)-5-pyrimidinyl]methyl}-4(1H)-pyrimidinone], the IC50 is not above 1 nM.

Still in this assay, the particulars now being: upper limit for pIC50 obtained in this PED6 assay is 9.3; read-out: rhLp-PLA2 (PED6 assay) (pIC50) (converted).
With `COc1ncc(Cc2c[nH]c(OCCc3ccc(Oc4ccc(Cl)c(C(F)(F)F)c4)cc3)nc2=O)cn1` [E24, 2-{[2-(4-{[4-Chloro-3-(trifluoromethyl)phenyl]oxy}phenyl)ethyl]oxy}-5-{[2-(methyloxy)-5-pyrimidinyl]methyl}-4(1H)-pyrimidinone], the IC50 is 0.794 nM.

For `Cn1cc(Cc2c[nH]c(SCCc3ccc(Oc4ccc(Cl)c(C(F)(F)F)c4)cc3)nc2=O)cn1` [E112], the IC50 was not above 0.501 nM.

Take `Cn1cc(Cc2c[nH]c(OCCc3ccc(Oc4ccc(Cl)c(C(F)(F)F)c4)cc3)nc2=O)cn1` [E22, 2-{[2-(4-{[4-Chloro-3-(trifluoromethyl)phenyl]oxy}phenyl)ethyl]oxy}-5-[(1-methyl-1H-pyrazol-4-yl)methyl]-4(1H)-pyrimidinone trifluoroacetate]: the IC50 was 0.794 nM.

With `O=c1nc(OCCc2ccc(Oc3ccc(Cl)c(C(F)(F)F)c3)cc2)[nH]cc1Cc1c(F)cc(F)cc1F` [E129, 2-{[2-(4-{[4-chloro-3-(trifluoromethyl)phenyl]oxy}phenyl)ethyl]oxy}-5-[(2,4,6-trifluorophenyl)methyl]-4(1H)-pyrimidinone], the IC50 was 3.98 nM.

As for `O=c1nc(NCCc2ccc(Oc3ccc(Cl)c(C(F)(F)F)c3)cc2)[nH]cc1Cc1cncnc1` [E11, 2-{[2-(4-{[4-Chloro-3-(trifluoromethyl)phenyl]oxy}phenyl)ethyl]amino}-5-(5-pyrimidinylmethyl)-4(1H)-pyrimidinone], the IC50 is 1 nM.

Take `Cn1cc(Cc2c[nH]c(SCc3ccc(Oc4ccc(Cl)c(C(F)(F)F)c4)c(C#N)c3)nc2=O)c2ccccc21` [E81, 2-(4-chloro-3-(trifluoromethyl)phenoxy)-5-(((5-((1-methyl-1H-indol-3-yl)methyl)-4-oxo-1,4-dihydropyrimidin-2-yl)thio)methyl)benzonitrile]: the IC50 was 25.1 nM.

As to `Cn1cc(Cc2c[nH]c(SCc3ccc(Oc4ccc(Cl)c(C(F)(F)F)c4)c(C#N)c3)nc2=O)cn1` [E58, 2-(4-chloro-3-(trifluoromethyl)phenoxy)-5-(((5-((1-methyl-1H-pyrazol-4-yl)methyl)-4-oxo-1,4-dihydropyrimidin-2-yl)thio)methyl)benzonitrile, trifluoroacetic acid salt], the IC50 is not above 0.501 nM.

Take `COc1ncc(Cc2c[nH]c(SCc3ccc(Oc4ccc(Cl)c(C(F)(F)F)c4)cc3)nc2=O)cn1` [E74, 2-{[(4-{[4-chloro-3-(trifluoromethyl)phenyl]oxy}phenyl)methyl]thio}-5-{[2-(methyloxy)-5-pyrimidinyl]methyl}-4(1H)-pyrimidinone]: the IC50 is 0.631 nM.
